Experimental data as given in patent publication US4332800A, “Cephem compounds” (Fujisawa Pharmaceutical Co., Ltd., priority 1979, dated 1982).
Values after ≈ are worked out from the molar mass of the structure shown.

How the values were obtained:
Format in all cases: cell-based
[1] = system: B. subtilis ATCC 6633; assay: Antimicrobial activity, minimal inhibitory concentration (agar streak) against B. subtilis ATCC 6633; conditions: Bacillus subtilis, ATCC6633, 10^8 viable cells per ml, heart infusion agar, 37° C. for 20 hours
Protocol: (§1) Now in order to show the utility of the object compounds (I), test data on anti-microbial activity of a representative compound of the present invention are shown below.
(§2) One loopful of an overnight culture of each test strain in Trypticase-soy broth (10^8 viable cells per ml.) was streaked on heart infusion agar (HI-agar) containing graded concentrations of antibiotics, and the minimal inhibitory concentration (MIC) was expressed in terms of μg/ml after incubation at 37° C. for 20 hours.

[2] = system: Ps. aeruginosa 2; assay: Antimicrobial activity, minimal inhibitory concentration (agar streak) against Ps. aeruginosa 2; conditions: Pseudomonas aeruginosa, 10^8 viable cells per ml, heart infusion agar, 37° C. for 20 hours
Protocol: as §1, §2

[3] = system: S. marcescens 35; assay: Antimicrobial activity, minimal inhibitory concentration (agar streak) against S. marcescens 35; conditions: Serratia marcescens, 10^8 viable cells per ml, heart infusion agar, 37° C. for 20 hours
Protocol: as §1, §2

MIC [1] [µg/mL]	MIC [2] [µg/mL]	MIC [3] [µg/mL]	SMILES
0.78 (≈ 1.59 µM)	3.13 (≈ 6.39 µM)	1.56 (≈ 3.19 µM)	CCO/N=C(\C(=O)NC1C(=O)N2C(C(=O)[O-])=C(C[n+]3ccccc3)CSC12)c1nsc(N)n1 (stereo not drawn) [(1)]
0.39 (≈ 0.774 µM)	12.5 (≈ 24.8 µM)	3.13 (≈ 6.22 µM)	CCCO/N=C(\C(=O)NC1C(=O)N2C(C(=O)[O-])=C(C[n+]3ccccc3)CSC12)c1nsc(N)n1 (stereo not drawn) [(2)]
0.78 (≈ 1.46 µM)	25 (≈ 46.9 µM)	3.13 (≈ 5.88 µM)	CCO/N=C(\C(=O)NC1C(=O)N2C(C(=O)[O-])=C(C[n+]3ccc(C(N)=O)cc3)CSC12)c1nsc(N)n1 (stereo not drawn) [(3)]
